Literature values in patent US20140328789A1, “pH-RESPONSIVE CELL SCAFFOLD AND METHOD OF USING SAME” (Research Foundation of the City University of New York, priority 2013, published 2014).
Values belong to the molecule of their own block, whether it stands above or below them.

Conditions: for pKa: cross-linking agent; for pKa1 Monomer: first pKa; for pKa2 Monomer: second pKa; for pKa3 Monomer: third pKa

Molecule: C=CC(=O)NC(C)C [N-isopropylacrylamide (NIPAM), N-isopropylacrylamide]
pKa Monomer: pKa ≈ 6

Molecule: C/C=C/C(=O)OC(=O)/C=C/C [Crotonic anhydride]
pKa: pKa = 4.61

Molecule: C=C(C)C(=O)OCCOP(=O)([O-])OCC[N+](C)(C)C [2-methacryloyloxyethyl phosphorylcholine]
pKa1 Monomer: pKa1 = 1.9

Molecule: C=C(CC(=O)O)C(=O)O [itaconic acid]
pKa Monomer: pKa = 4.5

Molecule: NCCCC[C@H](N)C(=O)O [lysine]
pKa1 Monomer: 2.2
pKa2 Monomer: 9.0
pKa3 Monomer: pKa3 = 10.5

Molecule: albumin
pKa Monomer: pKa = 7.4

Molecule: N[C@@H](CCC(=O)O)C(=O)O [glutamic acid]
pKa1 Monomer: 2.2
pKa2 Monomer: 4.25
pKa3 Monomer: pKa3 = 9.67

Molecule: C=C(C)C(=O)OCCN(C)C [N,N-Dimethylaminoethyl Methacrylate]
pKa Monomer: pKa = 7.3-7.5

The next lines start with the values.

pKa: pKa = 4.65
Molecule: C=C(C)C(=O)OC(=O)C(=C)C [Methacrylic anhydride]

pKa Monomer: pKa = 8.8
Molecule: C=C(C)C(=O)OCCN [aminoethyl methacrylate (AEMA), aminoethyl methacrylate]

pKa Monomer: pKa = 7.3
Molecule: C=C(C)C(=O)OCCN(CC)CC [2-diethylaminoethyl methacrylate]

pKa Monomer: pKa = 5.5
Molecule: C=C(C)C(=O)OC1CC(C)(C)N([O])C(C)(C)C1 [TEMPO methacrylate]
